# Test results as given in PubChem BioAssay (NCI).
#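 All cell lines were grown in 96-well plates and treated with compound for 48 hours. Abbreviation: GI50, concentration required for 50% inhibition of growth. TGI: concentration producing complete growth inhibition.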
# How the values were obtained:
# Assay in all cases: NCI-60 cell line screen, 48 h
# 786-0 renal = system: 786-0 renal
# A498 renal = system: A498 renal
# A549 NSCLC = system: A549 NSCLC
# ACHN renal = system: ACHN renal
# BT-549 breast = system: BT-549 breast
# CAKI-1 renal = system: CAKI-1 renal
# CCRF-CEM leukemia = system: CCRF-CEM leukemia
# COLO 205 colon = system: COLO 205 colon
# DU-145 prostate = system: DU-145 prostate
# EKVX NSCLC = system: EKVX NSCLC
# HCC-2998 colon = system: HCC-2998 colon
# HCT-116 colon = system: HCT-116 colon
# HCT-15 colon = system: HCT-15 colon
# HL-60(TB) leukemia = system: HL-60(TB) leukemia
# HOP-62 NSCLC = system: HOP-62 NSCLC
# HOP-92 NSCLC = system: HOP-92 NSCLC
# HS 578T breast = system: HS 578T breast
# HT29 colon = system: HT29 colon
# IGROV1 ovarian = system: IGROV1 ovarian
# K-562 leukemia = system: K-562 leukemia
# KM12 colon = system: KM12 colon
# LOX IMVI melanoma = system: LOX IMVI melanoma
# M14 melanoma = system: M14 melanoma
# MALME-3M melanoma = system: MALME-3M melanoma
# MCF7 breast = system: MCF7 breast
# MDA-MB-231 breast = system: MDA-MB-231 breast
# MDA-MB-435 = system: MDA-MB-435
# MOLT-4 leukemia = system: MOLT-4 leukemia
# NCI-H226 lung = system: NCI-H226 lung
# NCI-H23 lung = system: NCI-H23 lung
# NCI-H460 lung = system: NCI-H460 lung
# NCI-H522 lung = system: NCI-H522 lung
# NCI/ADR-RES ovarian = system: NCI/ADR-RES ovarian
# OVCAR-3 ovarian = system: OVCAR-3 ovarian
# OVCAR-4 ovarian = system: OVCAR-4 ovarian
# OVCAR-5 ovarian = system: OVCAR-5 ovarian
# OVCAR-8 ovarian = system: OVCAR-8 ovarian
# PC-3 prostate = system: PC-3 prostate
# RPMI-8226 leukemia = system: RPMI-8226 leukemia
# RXF 393 renal = system: RXF 393 renal
# SF-268 CNS = system: SF-268 CNS
# SF-295 CNS = system: SF-295 CNS
# SF-539 CNS = system: SF-539 CNS
# SK-MEL-2 melanoma = system: SK-MEL-2 melanoma
# SK-MEL-28 melanoma = system: SK-MEL-28 melanoma
# SK-MEL-5 melanoma = system: SK-MEL-5 melanoma
# SK-OV-3 ovarian = system: SK-OV-3 ovarian
# SN12C renal = system: SN12C renal
# SNB-19 CNS = system: SNB-19 CNS
# SNB-75 CNS = system: SNB-75 CNS
# SR leukemia = system: SR leukemia
# SW-620 colon = system: SW-620 colon
# T-47D breast = system: T-47D breast
# TK-10 renal = system: TK-10 renal
# U251 CNS = system: U251 CNS
# UACC-257 melanoma = system: UACC-257 melanoma
# UACC-62 melanoma = system: UACC-62 melanoma
# UO-31 renal = system: UO-31 renal
compound,measurement,setting,value
NC(=O)c1cccc(N2Cc3ccccc3OC3=C2C(=O)c2c(O)ccc(O)c2C3=O)c1,GI50,786-0 renal,276 nM
same,TGI,786-0 renal,986 nM
same,GI50,A498 renal,2640 nM
same,TGI,A498 renal,7210 nM
same,GI50,A549 NSCLC,2830 nM
same,TGI,A549 NSCLC,10100 nM
same,GI50,ACHN renal,165 nM
same,TGI,ACHN renal,485 nM
same,GI50,BT-549 breast,944 nM
same,TGI,BT-549 breast,2410 nM
same,GI50,CAKI-1 renal,301 nM
same,TGI,CAKI-1 renal,1130 nM
same,GI50,CCRF-CEM leukemia,120 nM
same,TGI,CCRF-CEM leukemia,595 nM
same,GI50,COLO 205 colon,112 nM
same,TGI,COLO 205 colon,298 nM
same,GI50,DU-145 prostate,517 nM
same,TGI,DU-145 prostate,1640 nM
same,GI50,EKVX NSCLC,1260 nM
same,TGI,EKVX NSCLC,4090 nM
same,GI50,HCC-2998 colon,1960 nM
same,TGI,HCC-2998 colon,3640 nM
same,GI50,HCT-116 colon,267 nM
same,TGI,HCT-116 colon,963 nM
same,GI50,HCT-15 colon,224 nM
same,TGI,HCT-15 colon,724 nM
same,GI50,HL-60(TB) leukemia,188 nM
same,TGI,HL-60(TB) leukemia,496 nM
same,GI50,HOP-62 NSCLC,2140 nM
same,TGI,HOP-62 NSCLC,5960 nM
same,GI50,HOP-92 NSCLC,270 nM
same,TGI,HOP-92 NSCLC,752 nM
same,GI50,HS 578T breast,3280 nM
same,TGI,HS 578T breast,30800 nM
same,GI50,HT29 colon,302 nM
same,TGI,HT29 colon,1150 nM
same,GI50,IGROV1 ovarian,1190 nM
same,TGI,IGROV1 ovarian,3010 nM
same,GI50,K-562 leukemia,164 nM
same,TGI,K-562 leukemia,1330 nM
same,GI50,KM12 colon,1880 nM
same,TGI,KM12 colon,4880 nM
same,GI50,LOX IMVI melanoma,284 nM
same,TGI,LOX IMVI melanoma,897 nM
same,GI50,M14 melanoma,554 nM
same,TGI,M14 melanoma,1970 nM
same,GI50,MALME-3M melanoma,194 nM
same,TGI,MALME-3M melanoma,614 nM
same,GI50,MCF7 breast,327 nM
same,TGI,MCF7 breast,1730 nM
same,GI50,MDA-MB-231 breast,342 nM
same,TGI,MDA-MB-231 breast,1040 nM
same,GI50,MDA-MB-435,1080 nM
same,TGI,MDA-MB-435,2860 nM
same,GI50,MOLT-4 leukemia,235 nM
same,TGI,MOLT-4 leukemia,1090 nM
same,GI50,NCI-H226 lung,2040 nM
same,TGI,NCI-H226 lung,5950 nM
same,GI50,NCI-H23 lung,1590 nM
same,TGI,NCI-H23 lung,4500 nM
same,GI50,NCI-H460 lung,2340 nM
same,TGI,NCI-H460 lung,6120 nM
same,GI50,NCI-H522 lung,68.2 nM
same,TGI,NCI-H522 lung,256 nM
same,GI50,NCI/ADR-RES ovarian,2130 nM
same,TGI,NCI/ADR-RES ovarian,35600 nM
same,GI50,OVCAR-3 ovarian,233 nM
same,TGI,OVCAR-3 ovarian,646 nM
same,GI50,OVCAR-4 ovarian,312 nM
same,TGI,OVCAR-4 ovarian,1130 nM
same,GI50,OVCAR-5 ovarian,1280 nM
same,TGI,OVCAR-5 ovarian,2870 nM
same,GI50,OVCAR-8 ovarian,304 nM
same,TGI,OVCAR-8 ovarian,1500 nM
same,GI50,PC-3 prostate,1280 nM
same,TGI,PC-3 prostate,4560 nM
same,GI50,RPMI-8226 leukemia,319 nM
same,TGI,RPMI-8226 leukemia,1360 nM
same,GI50,RXF 393 renal,189 nM
same,TGI,RXF 393 renal,433 nM
same,GI50,SF-268 CNS,1340 nM
same,TGI,SF-268 CNS,3910 nM
same,GI50,SF-295 CNS,2210 nM
same,TGI,SF-295 CNS,5990 nM
same,GI50,SF-539 CNS,1250 nM
same,TGI,SF-539 CNS,2630 nM
same,GI50,SK-MEL-2 melanoma,1960 nM
same,TGI,SK-MEL-2 melanoma,4790 nM
same,GI50,SK-MEL-28 melanoma,433 nM
same,TGI,SK-MEL-28 melanoma,1500 nM
same,GI50,SK-MEL-5 melanoma,1760 nM
same,TGI,SK-MEL-5 melanoma,3840 nM
same,GI50,SK-OV-3 ovarian,3510 nM
same,TGI,SK-OV-3 ovarian,13000 nM
same,GI50,SN12C renal,1440 nM
same,TGI,SN12C renal,3400 nM
same,GI50,SNB-19 CNS,3000 nM
same,TGI,SNB-19 CNS,10800 nM
same,GI50,SNB-75 CNS,1490 nM
same,TGI,SNB-75 CNS,6670 nM
same,GI50,SR leukemia,88 nM
same,TGI,SR leukemia,912 nM
same,GI50,SW-620 colon,275 nM
same,TGI,SW-620 colon,1030 nM
same,GI50,T-47D breast,213 nM
same,TGI,T-47D breast,746 nM
same,GI50,TK-10 renal,221 nM
same,TGI,TK-10 renal,682 nM
same,GI50,U251 CNS,1510 nM
same,TGI,U251 CNS,4590 nM
same,GI50,UACC-257 melanoma,531 nM
same,TGI,UACC-257 melanoma,1730 nM
same,GI50,UACC-62 melanoma,319 nM
same,TGI,UACC-62 melanoma,1140 nM
same,GI50,UO-31 renal,138 nM
same,TGI,UO-31 renal,344 nM
